Columns and labels:
[1] = molecular target: T1, human COX-2 (Homo sapiens, UniProt P35354); assay: COX Inhibitor Screening Assay, COX-2 activity; format: biochemical
T1 construct: purchased Cayman Chemical, Ann Arbor, Mich
T1 sequence (P35354 18-604): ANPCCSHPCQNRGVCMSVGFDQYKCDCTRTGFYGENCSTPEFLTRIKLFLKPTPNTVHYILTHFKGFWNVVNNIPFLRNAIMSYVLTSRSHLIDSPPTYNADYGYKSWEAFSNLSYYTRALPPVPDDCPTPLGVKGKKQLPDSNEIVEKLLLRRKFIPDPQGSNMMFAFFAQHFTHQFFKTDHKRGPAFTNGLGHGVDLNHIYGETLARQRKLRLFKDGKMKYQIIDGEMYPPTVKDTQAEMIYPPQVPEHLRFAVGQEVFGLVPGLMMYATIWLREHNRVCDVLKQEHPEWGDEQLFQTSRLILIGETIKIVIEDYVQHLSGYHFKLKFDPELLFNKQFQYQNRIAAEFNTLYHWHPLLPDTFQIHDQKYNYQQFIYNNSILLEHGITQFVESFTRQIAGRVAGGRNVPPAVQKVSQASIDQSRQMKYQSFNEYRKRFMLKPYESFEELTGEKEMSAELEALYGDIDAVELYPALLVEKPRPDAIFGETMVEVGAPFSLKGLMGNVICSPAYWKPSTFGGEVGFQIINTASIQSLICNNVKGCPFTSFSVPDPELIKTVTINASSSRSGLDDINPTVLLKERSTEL
Method: (§1) The ovine COX-1 and human CO-2 activities and the measurement of the prostaglandin products synthesized were performed using the COX Inhibitor Screening Assay (Cayman Chemical, Ann Arbor, Mich., which also contained the Prostaglandin Screening EIA Kit, used for prostaglandin quantification). The test compounds were dissolved at 50 times the highest final reaction concentration in DMSO or any other suitable solvent as stock solutions. These stock solutions were then diluted in the same solvent. Eight glass test tubes (13×100 mm) were placed in a 37° C. water bath. To each test tube was added 950 μL of reaction buffer (0.1 M Tris-HCl, pH 8.0, containing 5 mM EDTA, and 2 mM phenol), 10 μL of 100 µM heme solution, and 10 μL (5 units) of either ovine COX-1 or human COX-2 and the resulting mixture was incubated with the enzyme for 2 minutes. Twenty μL of the solvent was added to one tube (100% initial activity or solvent control) and 20 μL of each dilution of the test compound was added to one tube each. Each tube was vortexed immediately after the addition. The enzyme was incubated with the inhibitor for 3.5 minutes at 37° C. The enzymatic reaction was then initiated by the addition of 10 μL of freshly prepared 10 mM arachidonic acid (neutralized with KOH), vortexed and then incubated for 2 minutes at 37° C. […]

[2] = molecular target: T2, ovine COX-1 (Ovis aries, UniProt P05979); assay: COX Inhibitor Screening Assay, COX-1 activity; format: biochemical; conditions: 100 μM test compound
T2 construct: purchased Cayman Chemical, Ann Arbor, Mich
T2 sequence (P05979 25-600): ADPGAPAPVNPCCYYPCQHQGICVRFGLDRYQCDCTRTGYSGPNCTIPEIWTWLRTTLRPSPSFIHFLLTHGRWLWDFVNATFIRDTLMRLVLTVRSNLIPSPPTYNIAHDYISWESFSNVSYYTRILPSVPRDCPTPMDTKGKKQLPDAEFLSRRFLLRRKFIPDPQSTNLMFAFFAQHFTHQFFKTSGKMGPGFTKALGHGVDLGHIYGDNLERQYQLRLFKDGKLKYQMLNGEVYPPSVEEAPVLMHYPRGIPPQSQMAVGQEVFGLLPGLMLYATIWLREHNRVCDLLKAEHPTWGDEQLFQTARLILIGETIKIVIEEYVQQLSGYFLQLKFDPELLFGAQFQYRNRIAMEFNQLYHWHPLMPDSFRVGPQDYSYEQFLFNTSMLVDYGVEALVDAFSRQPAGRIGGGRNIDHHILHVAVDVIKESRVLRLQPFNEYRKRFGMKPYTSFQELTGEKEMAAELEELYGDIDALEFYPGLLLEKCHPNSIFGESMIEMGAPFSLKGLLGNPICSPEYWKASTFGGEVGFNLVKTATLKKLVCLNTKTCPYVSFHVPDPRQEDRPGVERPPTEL
Method: as §1

O=C1OCC(c2ccc(S(=O)(=O)CF)cc2)=C1c1ccccc1 [Example 1, 4-(4-((Fluoromethyl)sulfonyl)phenyl)-3-phenyl-5-hydrofuran-2-one]
COX-2 Inhibition (% at 10 μM) ([1]; 10 μM test compound, human COX-2): 40% | COX-2 selectivity ([1]; COX-2 versus COX-1, from Table 1): has COX-2 selectivity | COX-1 Inhibition (% at 100 μM) [2]: 30%

Source: patent publication US20020183366A1, “Cyclooxygenase-2 inhibitors, compositions and methods of use” (priority 2001, published 2002)
